The values that follow come from paper PMC11396751, “Design, Synthesis, and Anticancer Activity of Novel Enmein-Type Diterpenoid Derivatives Targeting the PI3K/Akt/mTOR Signaling Pathway” (Molecules, 2024).

The test system of one assay is HepG2 cells. In words: MTT anti-proliferative assay, HepG2. The following applies: Homo sapiens, HepG2; MTT, 48 h; means ± SD of three experiments. The format is cell-based, human. On the procedure: (§1) A series of novel enmein-type diterpenoid derivatives, 5a–m, were synthesized by introducing a side chain containing a carbamate moiety at the C-6 position of compound 4. The anticancer activities of 5a–m were tested against three human cancer cell lines and one human normal cell line by MTT assay.
(§2) Human non-small cell lung cancer cell lines (A549), human liver cancer cell lines (HepG2), human breast cancer cell lines (MCF-7), and human normal cell lines (L-02) were purchased from the cell bank of the Chinese Academy of Sciences. All cells were placed in RPMI-1640 medium (added 10% fetal bovine serum, […]) and cultured in an aseptic environment with 5% CO2 at 37 °C.
(§3) All derivatives were evaluated for their anti-proliferative activities against three cancer cell lines and one normal cell line by MTT assay. The cells in the logarithmic growth phase were inoculated into 96-well plates (3 × 10^3 cells/well) and incubated for 48 h in a sterile environment with 5% CO2 at 37 °C to make them attach via cell adhesion; then, the cells were co-incubated with target compounds for 48 h. After that, MTT solution (10 µL/well) was added to the cell culture medium to continue incubation for 4 h, following which the medium was replaced with DMSO (150 µL/well). The absorbance values at 490 nm were determined using an enzyme meter (Safire 2, Tecan, Männedorf, Switzerland) and further converted to half-inhibitory concentration values of these compounds.

The next assay has as its system MCF-7 cells. Nature of the assay: MTT anti-proliferative assay, MCF-7. The following applies: Homo sapiens, MCF7, 48 h, means ± SD of three experiments. Format: cell-based. On the procedure:
as §1, §2, §3

In another assay the test system is L-02 cells. In words: MTT anti-proliferative assay, normal L-02 cells. The format is cell-based. Conditions: means ± SD of three experiments. The method, then:
as §1, §2, §3

In the next assay the test system is A549 cells. Nature of the assay: MTT anti-proliferative assay, A549. The format is cell-based, human. The following applies: for IC50: Homo sapiens, A549, MTT, 48 h, means ± SD of three experiments. On the procedure:
as §1, §2, §3

Regarding `C=C1C(=O)C23C(=O)OC45CCC(C)(C)C6C(O)OCC64C2CCC1C3O5` (single isomer, unassigned; ent-6) [Compound 4, Ent-6β,14α-Dihydroxy-(1,7–1,14)-epoxy-7,15-dioxo-6,20-hemiketal-6,7-seco-16-kaurene], the IC50 worked out at 27.4 ± 0.83 µM in the assay on HepG2 cells; 25.8 ± 1.14 µM in the assay with MCF-7 cells; 30.2 ± 1.58 µM with L-02 cells (Homo sapiens, L02, 48 h); 23.8 ± 1.86 µM in the assay on A549 cells.

Turning to `C=C1C(=O)C23C(=O)OC45CCC(C)(C)C6C(OC(=O)N(C)C)OCC64C2CCC1C3O5` (single isomer, unassigned; ent-6) [Compound 5a, ent-6β,14α-Dihydroxy-(1,7–1,14)-epoxy-7,15-dioxo-6,20-hemiketal-6,7-seco-16-kaurene-6β-yl dimethylcarbamate], the IC50 is 17.1 ± 1.39 µM with HepG2 cells; 30.7 ± 1.16 µM with MCF-7 cells; > 50 µM with L-02 cells (Homo sapiens, L02, 48 h); 14.7 ± 1.54 µM in the assay on A549 cells.

As to `C=C1C(=O)C23C(=O)OC45CCC(C)(C)C6C(OC(=O)N(CC)CC)OCC64C2CCC1C3O5` (single isomer, unassigned; ent-6) [Compound 5b, ent-6β,14α-Dihydroxy-(1,7–1,14)-epoxy-7,15-dioxo-6,20-hemiketal-6,7-seco-16-kaurene-6β-yl diethylcarbamate], the IC50 in the assay with HepG2 cells is 15.2 ± 1.58 µM; with MCF-7 cells, 17.6 ± 2.4 µM; with L-02 cells (Homo sapiens, L02, 48 h), > 50 µM; in the assay with A549 cells, 15.8 ± 1.5 µM.

As for `C=C1C(=O)C23C(=O)OC45CCC(C)(C)C6C(OC(=O)N(C)CC)OCC64C2CCC1C3O5` (single isomer, unassigned; ent-6) [Compound 5c, ent-6β,14α-Dihydroxy-(1,7–1,14)-epoxy-7,15-dioxo-6,20-hemiketal-6,7-seco-16-kaurene-6β-yl ethyl(methyl)carbamate], the IC50 with HepG2 cells is 22.5 ± 3.42 µM; with MCF-7 cells, 21.9 ± 2.72 µM; in the assay with L-02 cells (Homo sapiens, L02, 48 h), > 50 µM; with A549 cells, 20.2 ± 1.46 µM.

Consider `C=C1C(=O)C23C(=O)OC45CCC(C)(C)C6C(OC(=O)N(CCCl)CCCl)OCC64C2CCC1C3O5` (single isomer, unassigned; ent-6) [Compound 5d, ent-6β,14α-Dihydroxy-(1,7–1,14)-epoxy-7,15-dioxo-6,20-hemiketal-6,7-seco-16-kaurene-6β-yl bis(2-chloroethyl) carbamate], for which the IC50 in the assay with HepG2 cells was 11 ± 1.45 µM; in the assay with MCF-7 cells it was 15.6 ± 1.61 µM; in the assay on L-02 cells (L02, human normal cells, 48 h) it was 30.4 ± 3.44 µM; with A549 cells, 8.76 ± 1.56 µM.

As to `C=C1C(=O)C23C(=O)OC45CCC(C)(C)C6C(OC(=O)N7CCCC7)OCC64C2CCC1C3O5` (single isomer, unassigned; ent-6) [Compound 5f, ent-6β,14α-Dihydroxy-(1,7–1,14)-epoxy-7,15-dioxo-6,20-hemiketal-6,7-seco-16-kaurene-6β-yl pyrrolidine-1-carboxylate], the 50% inhibitory concentration (IC50) with HepG2 cells came to 18.3 ± 1.36 µM; in the assay on MCF-7 cells, 20.7 ± 1.2 µM; with L-02 cells (Homo sapiens, L02, 48 h), 45.9 ± 2.3 µM; in the assay on A549 cells, 13.4 ± 2.19 µM.

As to `C=C1C(=O)C23C(=O)OC45CCC(C)(C)C6C(OC(=O)N7CCCCC7)OCC64C2CCC1C3O5` (single isomer, unassigned; ent-6) [Compound 5g, ent-6β,14α-Dihydroxy-(1,7–1,14)-epoxy-7,15-dioxo-6,20-hemiketal-6,7-seco-16-kaurene-6β-yl piperidine-1-carboxylate], the IC50 is 21.1 ± 2.5 µM in the assay with HepG2 cells; 22.8 ± 2.13 µM with MCF-7 cells; > 50 µM in the assay with L-02 cells (Homo sapiens, L02, 48 h); 15.3 ± 2.4 µM in the assay with A549 cells.

In the case of `C=C1C(=O)C23C(=O)OC45CCC(C)(C)C6C(OC(=O)N7CCCCCC7)OCC64C2CCC1C3O5` (single isomer, unassigned; ent-6) [Compound 5h, ent-6β,14α-Dihydroxy-(1,7–1,14)-epoxy-7,15-dioxo-6,20-hemiketal-6,7-seco-16-kaurene-6β-yl azepane-1-carboxylate], the half-maximal inhibitory concentration (IC50) in the assay on HepG2 cells was 20.2 ± 1.33 µM; in the assay on MCF-7 cells it was 24 ± 2.55 µM; in the assay on L-02 cells (Homo sapiens, L02, 48 h) it was > 50 µM; with A549 cells, 18.4 ± 1.13 µM.

For the compound `C=C1C(=O)C23C(=O)OC45CCC(C)(C)C6C(OC(=O)N7CCOCC7)OCC64C2CCC1C3O5` (single isomer, unassigned; ent-6) [Compound 5i, ent-6β,14α-Dihydroxy-(1,7–1,14)-epoxy-7,15-dioxo-6,20-hemiketal-6,7-seco-16-kaurene-6β-yl bmorpholine-4-carboxylate], the IC50 in the assay with HepG2 cells was 23.7 ± 3.4 µM; in the assay on MCF-7 cells, 25.1 ± 3.34 µM; in the assay on L-02 cells (Homo sapiens, L02, 48 h), 38.1 ± 2.82 µM; in the assay with A549 cells it was 14.4 ± 1.42 µM.

In the case of `C=C1C(=O)C23C(=O)OC45CCC(C)(C)C6C(OC(=O)N(c7ccccc7)c7ccccc7)OCC64C2CCC1C3O5` (single isomer, unassigned; ent-6) [Compound 5j, ent-6β,14α-Dihydroxy-(1,7–1,14)-epoxy-7,15-dioxo-6,20-hemiketal-6,7-seco-16-kaurene-6β-yl diphenylcarbamate], the IC50 is 34.1 ± 3.52 µM in the assay on HepG2 cells; 32.8 ± 2.95 µM in the assay on MCF-7 cells; > 50 µM with L-02 cells (Homo sapiens, L02, 48 h); 23.3 ± 2.25 µM in the assay on A549 cells.

As for `C=C1C(=O)C23C(=O)OC45CCC(C)(C)C6C(OC(=O)N7c8ccccc8Sc8ccccc87)OCC64C2CCC1C3O5` (single isomer, unassigned; ent-6) [Compound 5k, ent-6β,14α-Dihydroxy-(1,7–1,14)-epoxy-7,15-dioxo-6,20-hemiketal-6,7-seco-16-kaurene-6β-yl 10H-phenothiazine-10-carboxylate], the half-maximal inhibitory concentration (IC50) is 25.7 ± 2.16 µM in the assay with HepG2 cells; 26.3 ± 2.3 µM in the assay on MCF-7 cells; > 50 µM in the assay on L-02 cells (Homo sapiens, L02, 48 h); 17.2 ± 1.43 µM in the assay with A549 cells.

Consider `C=C1C(=O)C23C(=O)OC45CCC(C)(C)C6C(OC(=O)CCn7cccc7)OCC64C2CCC1C3O5` (single isomer, unassigned; ent-6) [Compound 5l, ent-6β,14α-Dihydroxy-(1,7–1,14)-epoxy-7,15-dioxo-6,20-hemiketal-6,7-seco-16-kaurene-6β-yl 3-(1H-pyrrol-1-yl) propanoate], for which the concentration for half-maximal inhibition (IC50) is 11.2 ± 1.82 µM with HepG2 cells; 15.9 ± 1.9 µM in the assay with MCF-7 cells; > 50 µM in the assay with L-02 cells (Homo sapiens, L02, 48 h); 8.3 ± 2.55 µM in the assay on A549 cells.

In the case of `C=C1C(=O)C23C(=O)OC45CCC(C)(C)C6C(OC(=O)CCN7C(=O)c8ccccc8C7=O)OCC64C2CCC1C3O5` (single isomer, unassigned; ent-6) [Compound 5m, ent-6β,14α-Dihydroxy-(1,7–1,14)-epoxy-7,15-dioxo-6,20-hemiketal-6,7-seco-16-kaurene-6β-yl 3-(1,3-dioxoisoindolin-2-yl) propanoate], the IC50 with HepG2 cells was 10.9 ± 1.25 µM; with MCF-7 cells it was 12.3 ± 1.11 µM; in the assay on L-02 cells (Homo sapiens, L02, 48 h) it was 32.5 ± 1.62 µM; with A549 cells it was 6.85 ± 1.68 µM. The “fold better than parental compound 4 (A549 IC50)” value in the assay with A549 cells (A549 cells) stood at 3.48 fold.

As for `C=C1C(=O)C23C(=O)OC45CCC(C)(C)C6C(OC(=O)CCC(=O)NCc7ccccc7)OCC64C2CCC1C3O5` (single isomer, unassigned; ent-6) [Compound 7a, ent-6β,14α-Dihydroxy-(1,7–1,14)-epoxy-7,15-dioxo-6,20-hemiketal-6,7-seco-16-kaurene-6β-yl 4-(benzylamino)-4-oxobutanoate], the IC50 was 13.8 ± 2.19 µM with HepG2 cells; 10.8 ± 1.65 µM with MCF-7 cells; > 50 µM with L-02 cells (L02, human normal cells, 48 h); 10.2 ± 1.1 µM with A549 cells.

Consider `C=C1C(=O)C23C(=O)OC45CCC(C)(C)C6C(OC(=O)CCC(=O)NCc7ccc(C)cc7)OCC64C2CCC1C3O5` (single isomer, unassigned; ent-6) [Compound 7b, ent-6β,14α-Dihydroxy-(1,7–1,14)-epoxy-7,15-dioxo-6,20-hemiketal-6,7-seco-16-kaurene-6β-yl 4-((4-methylbenzyl)amino)-4-oxobutanoate], for which the IC50 in the assay on HepG2 cells was 10.5 ± 1.68 µM; with MCF-7 cells, 12.8 ± 1.64 µM; with L-02 cells (Homo sapiens, L02, 48 h) it was > 50 µM; in the assay on A549 cells, 7.48 ± 1.31 µM.

Take `C=C1C(=O)C23C(=O)OC45CCC(C)(C)C6C(OC(=O)CCC(=O)NCc7ccc(OC)cc7)OCC64C2CCC1C3O5` (single isomer, unassigned; ent-6) [Compound 7c, ent-6β,14α-Dihydroxy-(1,7–1,14)-epoxy-7,15-dioxo-6,20-hemiketal-6,7-seco-16-kaurene-6β-yl 4-((4-meth0xybenzyl)amino)-4-oxobutanoate]: the 50% inhibitory concentration (IC50) is 12.8 ± 1.73 µM in the assay with HepG2 cells; 8.35 ± 1.96 µM in the assay on MCF-7 cells; 34.4 ± 4.37 µM with L-02 cells (Homo sapiens, L02, 48 h); 8.37 ± 1.53 µM in the assay on A549 cells.

Regarding `C=C1C(=O)C23C(=O)OC45CCC(C)(C)C6C(OC(=O)CCC(=O)NCc7ccc(C(C)(C)C)cc7)OCC64C2CCC1C3O5` (single isomer, unassigned; ent-6) [Compound 7d, ent-6β,14α-Dihydroxy-(1,7–1,14)-epoxy-7,15-dioxo-6,20-hemiketal-6,7-seco-16-kaurene-6β-yl 4-((4-(tert-butyl)benz-yl)amino)-4-oxobutanoate], the IC50 was determined as 11.5 ± 1.58 µM in the assay with HepG2 cells; 7.64 ± 2.52 µM in the assay with MCF-7 cells; 35.7 ± 2.66 µM in the assay with L-02 cells (Homo sapiens, L02, 48 h); 6.41 ± 1.9 µM with A549 cells.
